Measurements published in US20130045988A1, “COMBINATION THERAPY” (SHIRE AG, priority 2011, published 2013).
Several values for one entry are separate records, joined by “and”; a condition that tells them apart may be missing. Identical values can stand only once. Entries after “also recorded” stand apart in the source; their conditions may differ. Like-named read-outs stand apart in the source and are kept apart here.

Legend:
[1] = test system: pig colon descendens circular muscle; test: EFS-induced submaximal cholinergic contractions of colon circular muscle strips; details: for influence on the facilitating effect of prucalopride on cholinergic neurotransmission: PDE inhibitor before prucalopride, data not shown; for effect on EFS-induced cholinergic contractions: cumulative half log unit increasing concentrations, IBMX effect range 1-30 μM
Procedure: Young male pigs (10-12 weeks, 15-25 kg-breed Line 36) were obtained from […], Belgium. On the morning of the experiment, pigs were anaesthetized with an intramuscular injection of 5 ml Zoletil 100 (containing 50 mg/ml tiletamine and 50 mg/ml zolazepam; Virbac Belgium S.A., Belgium). […] The aerated (5% CO2/95% O2) Krebs-Henseleit solution in the organ baths (see example 11) systematically contained 4 μM of the noradrenergic neuron blocker guanethidine and 0.3 mM of the NO synthase inhibitor Nω-nitro-L-arginine methyl ester hydrochloride (L-NAME) to avoid noradrenergic and […] responses respectively. After 60 min of stabilization with refreshing of the Krebs-Henseleit solution every 15 min, strips were contracted with the muscarinic receptor agonist carbachol (3 μM). This procedure was repeated with a 20-min washout period in between. […] NK3, 0.3 μM SB222200) were added and incubated for 30 min before the first electrical stimulation. […] Strips were then stimulated for 1 hour (12 stimulations) with 5 min interval at supramaximal voltage (35 V) (10 s trains; 0.25 ms pulse duration; frequency of 4 Hz). […] The protocols as described in examples 12 and 13 then started. […] Changes in isometric tension were measured using MLT 050/D force transducers (ADInstruments, United Kingdom) and recorded on a PowerLab/8sp data recording system (ADInstruments, United Kingdom) with Chart v5.5.6 software. The obtained data were analysed as follows: […] Results are expressed as means±S.E.M., n referring to tissues from different animals except when otherwise indicated. Statistical analysis was performed by use of Graphpad Prism […]<0.05 was considered statistically significant. When adding PDE inhibitors cumulatively, the last contraction in the presence of each concentration was compared to the reference by repeated measures ANOVA followed by a Bonferroni corrected t-test. […] A cumulative concentration-response curve for the different PDE inhibitors was obtained by adding them in half log unit increasing concentrations, starting after 5 reproducible contractions at V50% had been obtained and registering the responses to 6 trains (30 min) after adding each concentration. Parallel to the cumulative concentration-response curve of rolipram, an isolated concentration-response curve was obtained by adding one single concentration per tissue in 3 animals. […] The solvents DMSO and ethanol were tested separately by adding them cumulatively in the matching dilutions as for the cumulative concentration series of the corresponding PDE inhibitor.

[2] = test system: pig gastric circular muscle strips; test: EFS-induced submaximal cholinergic contractions of gastric circular muscle strips
[3] = test system: cholinergic neurons innervating pig gastric circular muscle; test: EFS-induced acetylcholine release (total radioactivity/tritium outflow) from pig gastric circular muscle strips
[4] = test system: PDE; details: Beavo and Reifsnyder, 1990; read-out: IC50 range; cited from earlier work
[5] = prucalopride 0.03, 0.1 or 0.3 μM

CCCCCC[C@@H]([C@@H](C)O)n1cnc2c(N)ncnc21 (racemic) [EHNA]
influence on the facilitating effect of prucalopride on cholinergic neurotransmission [1]: did not influence the facilitating effect of prucalopride on cholinergic neurotransmission
influence on submaximal cholinergic contractions ([2]; 1-30 μM): did not significantly influence the submaximal cholinergic contractions
S2/S1 ratio of EFS-induced total radioactivity outflow ([3]; 10 μM EHNA alone): 0.51±0.05
influence on basal tritium outflow ([3]; PDE inhibitor alone, 10 μM): did not influence basal

Cn1cc(C(=O)OCC2CCN(CCNS(C)(=O)=O)CC2)c2ccccc21 [GR113808]
influence per se on EFS-induced contractions ([2]; GR113808 1, 10 and 100 nM): did not influence the EFS-induced contractions
influence on the facilitating effect of prucalopride on EFS-induced contractions ([2]; GR113808 1, 10 and 100 nM versus 0.3 μM prucalopride): concentration-dependently inhibited the facilitating effect of 0.3 μM prucalopride
S2, EFS-induced outflow of total radioactivity above baseline ([3]; 1 nM GR113808 added 21 min before 0.3 μM prucalopride): 43860 ± 4122 dpm g^−1 tissue
S2/S1 ratio of EFS-induced total radioactivity outflow ([3]; 1 nM GR113808 followed by 0.3 μM prucalopride): 1.05 ± 0.08
S2, EFS-induced outflow of total radioactivity above baseline ([3]; 10 nM GR113808 added 21 min before 0.3 μM prucalopride): 39273 ± 9533 dpm g^−1 tissue
S2/S1 ratio of EFS-induced total radioactivity outflow ([3]; 10 nM GR113808 followed by 0.3 μM prucalopride): 0.86 ± 0.04
S2, EFS-induced outflow of total radioactivity above baseline ([3]; 100 nM GR113808 added 21 min before 0.3 μM prucalopride): 47590 ± 8293 dpm g^−1 tissue
S2/S1 ratio of EFS-induced total radioactivity outflow ([3]; 100 nM GR113808 followed by 0.3 μM prucalopride): 0.74 ± 0.05
influence on basal tritium outflow ([3]; GR113808 1, 10, 100 nM): did not influence basal tritium outflow
influence on the facilitating effect of prucalopride on EFS-induced acetylcholine release ([3]; GR113808 1, 10, 100 nM versus 0.3 μM prucalopride): concentration-dependently antagonized the facilitating effect of 0.3 μM prucalopride
S1, EFS-induced outflow of total radioactivity above baseline ([3]; first stimulation S1, before drugs, tissues given 1 nM GR113808 then 0.3 μM prucalopride): 42314 ± 3744 dpm g^−1 tissue
S1, EFS-induced outflow of total radioactivity above baseline ([3]; first stimulation S1, before drugs, tissues given 10 nM GR113808 then 0.3 μM prucalopride): 45180 ± 10235 dpm g^−1 tissue
S1, EFS-induced outflow of total radioactivity above baseline ([3]; first stimulation S1, before drugs, tissues given 100 nM GR113808 then 0.3 μM prucalopride): 49850 ± 8210 dpm g^−1 tissue

CC(C)Cn1c(=O)n(C)c(=O)c2[nH]cnc21 [IBMX, 3-isobutyl-1-methyl-xanthine]
effect on EFS-induced cholinergic contractions [1]: concentration-dependently inhibited EFS-induced cholinergic contractions
EFS-induced contractions decreased maximally to % of response before ([2]; 3 μM IBMX, piglets): 84±2%
effect on EFS-induced cholinergic contractions ([2]; 30 μM IBMX): nearly abolished
effect on amplitude of the EFS-induced cholinergic contractions ([2]; IBMX, half log unit ascending concentrations): concentration-dependent reduction of the amplitude of the EFS-induced cholinergic contractions from 3 μM onwards
IC50 [4]: 2 to 50 µM
influence on EFS-induced tritium outflow ([3]; IBMX 10 μM alone): nor did it influence EFS-induced tritium outflow; also recorded: did not significantly influence EFS-induced tritium outflow
influence on basal tritium outflow ([3]; PDE inhibitor alone, 10 μM): did not influence basal

CN1[C@@H]2CC[C@H]1C[C@@H](OC(=O)C(CO)c1ccccc1)C2 (some centres unmarked) [atropine]
effect on EFS-induced contractions at V50% C [2]: abolished

CN(C(=O)CCCOc1ccc2[nH]c(=O)ccc2c1)C1CCCCC1 [cilostamide]
potency versus IBMX in inhibiting EFS-induced cholinergic contractions [1]: about 100 times
inhibition at 0.03 µM ([1]; Sus scrofa, 0.03 μM cilostamide): 75%
effect on EFS-induced cholinergic contractions [1]: concentration-dependently inhibited EFS-induced cholinergic contractions
contraction at the 10th stimulation train, % of the response before ([2]; 1 μM cilostamide alone): 59±13%
activity at 3 µM ([2]; Sus scrofa, 3 μM cilostamide, maximal depression, read-out: EFS-induced contraction, reduction to % of response before PDE-inhibitor): 68 ± 11%
influence on submaximal cholinergic contractions ([2]; cilostamide 0.01-10 μM): reduced the contractions from 0.1 μM onwards
influence on basal tritium outflow ([3]; PDE inhibitor alone, 1 μM): None of these PDE-inhibitors alone influenced basal tritium outflow

COCCCN1CCC(NC(=O)c2cc(Cl)c(N)c3c2OCC3)CC1 [prucalopride, 4-amino-5-chloro-2,3-di-hydro-N-[r-(3-methoxypropyl)-4-piperidinyl]-7-benzo-furan-carboxamide]
effect on EFS-induced cholinergic submaximal contractions ([1]; 1 μM prucalopride): systematically enhanced EFS-induced cholinergic submaximal contractions
electrically induced contractions, % of mean of 5 contractions before ([2]; 0.01 μM prucalopride alone): 162±11%
electrically induced contractions, % of mean of 5 contractions before ([2]; 0.03 μM prucalopride alone): 171±15%
electrically induced contractions, % of mean of 5 contractions before ([2]; 0.1 μM prucalopride alone): 206±10%
effect on amplitude of the EFS-induced contractions [2, 5]: progressively enhanced the amplitude of the EFS-induced contractions
influence on basal tone of the strips [2, 5]: did not influence the basal tone of the strips
S1, EFS-induced outflow of total radioactivity above baseline [3]: 68328 ± 11006 dpm g^−1 tissue and 91698 ± 24563 dpm g^−1 tissue and 61343 ± 11445 dpm g^−1 tissue and 50543 ± 3791 dpm g^−1 tissue
S2, EFS-induced outflow of total radioactivity above baseline ([3]; 0.03 μM prucalopride added 15 min before S2): 62398 ± 8272 dpm g^−1 tissue
influence on EFS-induced tritium outflow ([3]; 0.03 μM prucalopride alone): enhanced EFS-induced tritium outflow
S2, EFS-induced outflow of total radioactivity above baseline ([3]; 0.1 μM prucalopride added 15 min before S2): 91877 ± 21668 dpm g^−1 tissue
S2, EFS-induced outflow of total radioactivity above baseline ([3]; 0.3 μM prucalopride added 15 min before S2): 61498 ± 9813 dpm g^−1 tissue and 52591 ± 2950 dpm g^−1 tissue
influence on basal tritium outflow ([3]; prucalopride 0.03, 0.1 and 0.3 μM): did not influence the basal outflow

O=C(Nc1c(Cl)cncc1Cl)c1ccc(OC(F)F)c(OCC2CC2)c1 [roflumilast]
S2/S1 ratio of EFS-induced total radioactivity outflow ([3]; 0.3 μM roflumilast alone, 36 min before S2): 0.85±0.02

COc1ccc(C2CNC(=O)C2)cc1OC1CCCC1 (centres unmarked) [rolipram]
effect on EFS-induced contractions ([1]; 3 μM rolipram, before prucalopride is added): did not enhanced the EFS-induced contractions
effect on EFS-induced contractions ([1]; 0.1 and 0.3 μM rolipram): significant increase of the EFS-induced contractions
mean contractile response to the 10th stimulation train, % of response before administration ([2]; 1 μM rolipram alone, before adding prucalopride, three tissue groups): 114±8% and 115±8% and 122±9%
individual contractile response to the 10th stimulation, % of response before administration ([2]; 1 μM rolipram alone, single tissues of the group later given 0.03 μM prucalopride): 96% and 111% and 137% and 155% and 93% and 102% and 101% and 128%
influence on submaximal cholinergic contractions ([2]; 1-30 μM): did not significantly influence the submaximal cholinergic contractions
influence on basal tritium outflow ([3]; PDE inhibitor alone, 1 μM): None of these PDE-inhibitors alone influenced basal tritium outflow

NC1=N[C@H](O)[C@H]2[C@H]3O[C@]4(O)O[C@@H]([C@@H](O)[C@@]2(N1)[C@@H]4O)[C@]3(O)CO [tetrodotoxin]
effect on EFS-induced contractions at V50% C [2]: abolished

CC(C)n1c(=O)c(C(=O)N[C@H]2C[C@H]3CC[C@@H](C2)N3C[C@@H](O)CN(C)S(C)(=O)=O)cc2ccccc21 [velusetrag]
S2/S1 ratio of EFS-induced total radioactivity outflow [3]: 0.7±0.03

CCOC(=O)C1=C[C@]2(CC)CCCN3CCc4c(n1c1ccccc41)[C@@H]32 [vinpocetine]
influence on the facilitating effect of prucalopride on cholinergic neurotransmission [1]: did not influence the facilitating effect of prucalopride on cholinergic neurotransmission
influence on submaximal cholinergic contractions ([2]; vinpocetine 0.01-10 μM): did not significantly influence the submaximal cholinergic contractions
influence on basal tritium outflow ([3]; PDE inhibitor alone, 10 μM): None of these PDE-inhibitors alone influenced basal tritium outflow
